Experimental data as given in patent US7728146B2, “Enzyme inhibitors” (Probiodrug AG, priority 2006, dated 2010).
Where two headings read alike, the source gives them in different places.

Legend:
[1] = Blood-brain distribution / LogBB; assay type: in vivo; details: male Wistar rats, bolus plus 60 min continuous i.v. infusion; for Kp at 60 min / Kp at 1 h: Wistar (Crl:WI), rat, brain and plasma, iv; for Kp at 1 h: read-out: Brain/Plasma ratio; for LogBB Mean: mean of the animals
Method: Male Wistar rats (N=20, 5 per Group; Crl:WI) with a body weight ranging between 300 and 350 g were purchased from Charles River Laboratories (Sulzfeld, Germany).
One week after adaptation to the housing conditions, catheters were implanted into the carotid artery and jugular vein of the rats under general anaesthesia (i.p. injection of 0.25 ml/kg b.w. Rompun® [2%], BayerVital, Germany and 0.5 ml/kg b.w. Ketamin 10, Atarost GmbH & Co., Twistringen, Germany). The animals were allowed to recover for one week. The catheters were flushed with heparin-saline (100 IU/ml) three times per week. In case of dysfunction of the catheter, a new animal were recruited to implant catheters into the carotid artery and jugular vein of this new rat under general anaesthesia. No anaesthetics were administered during infusion for compound transfer.
The bolus dose of compounds were dissolved in 10 μl DMSO and than diluted to 1 ml with saline (0.154 mol/l) and were injected via the venous catheter (n=5 rats). Thereafter, a continuous i.v. infusion of the compound solved in 10 μl DMSO and diluted to 5 ml with saline (infusion rate 0.083 ml/min; Perfusor^R fm, B. Braun, Melsungen AG, Germany) were commenced for 60 min. 150 μl arterial blood samples were taken at 0, 20, 40, 50 and 60 min and stored on ice until centrifugation (12000 rpm for 2 min). Separated plasma were frozen in liquid nitrogen for further analysis.
After 60 min primed-continuous infusion the N=5 rats were heparinized with 50 IU per 100 g b.w. heparin 5 min before the end of protease inhibitor infusion. The rats were quickly anaesthetized with i.a. ketamin® injection and bled to death from the abdominal vessels. The aorta supplying the upper part of the body were separated and canulated. The upper part of the body (including the brain) were perfused with 20 ml ice cold saline to flush the vessels free within the brain. The brains were taken out of the skull, rinsed briefly in ice cold saline and placed on filter paper.
Preparation: The brains were divided into their hemispheres, which were weighed and frozen in liquid nitrogen for further analysis.
In plasma samples and brain tissues concentrations of compounds were measured using the aforementioned LC-MS methods.

[2] = Bioavailability studies (pharmacokinetics after oral and intraarterial administration); assay type: in vivo, rat; details: for AUC / AUC(0-inf) / AUC(0-t) / Cmax / Tmax / AUC/Dose / half-life: male Wistar rats; for AUC: cross-over design; for AUC(0-inf) / AUC(0-t) / Cmax / Tmax / AUC/Dose / half-life: hydrochloride salt, Mean ± SD; for bioavailability: calculated from Mean AUC p.o. / Mean AUC i.a., read-out: F (bioavailability)
Method: Male Wistar rats (N=25; Crl:WI) with a body weight ranging between 300 and 350 g were purchased from Harlan Winkelmann GmbH (Borchen, Germany).
All studycompounds were used in the form of the hydrochloride salt.
One week after adaptation to the housing conditions, catheters were implanted into the carotid artery of the rats under general anaesthesia (i.p. injection of 0.25 mL/kg b.w. Rompun® [2%], BayerVital, Germany and 0.5 mL/kg b.w. Ketamin 10, Atarost GmbH & Co., Twistringen, Germany). The animals were allowed to recover for one week. The catheters were flushed with heparin-saline (100 IU/mL) three times per week.
After overnight fast, the inhibitors were administered the oral route via a feeding tube (15 g, 75 mm; Fine Science Tools, Heidelberg, Germany) and the intraarterial route via the arterial catheter. In case of intraarterial administration, the catheter was immediately flushed with 30 μL saline.
The animals were treated by a single oral dose of 3 mg/kg (5 mL/kg b.w.; treatment A) followed by a wash-out period of at least 3 days before intraarterial administration of 3 mg/kg (2 mL/kg b.w.; treatment B). The compounds were dissolved in saline to a final concentration adequate for an application of 3 mg/kg b.w.
Heparinized blood samples of 170 μL were collected in ice cooled sample tubes at −5, 0 (before medication) and at 5, 15, 30, 45, 60, 120, 240, 360 and 480 min. Blood samples in sample tubes were put shortly on ice and centrifuged thereafter (12,000 rpm for 2 min).
Plasma levels of the DP IV inhibitors were determined by measurement of plasma DP IV activity under standardized conditions using Gly-Pro-pNA as substrate. Plasma levels were calculated from the degree of inhibition using the known inhibition constants and the equation for competitive inhibition.
For determination of plasma DP IV activity, 50 μL sample in an appropriate dilution were incubated with 100 μL Hepes buffer (0.102 M, pH 7.6, I=0.319 M by KCl) and 50 μL water in a 96 well plate. Reaction was started by addition of 50 μL of a 2 mM Gly-Pro-pNA solution. Release of pNA was monitored for 20 min at 30° C. and 405 nm using a GeniousPro plate reader (Tecan). DP IV activity (deltaAbsorbtion/min) was calculated by linear regression of the time response curve. From this activity the concentration of the inhibitor was calculated using the following equation derived from the inhibitor equation for competitive inhibition.
Pharmacokinetic analyses (parameters of the individual PK profiles) and descriptive statistics were carried out using WinNonlin (Version 4.0.1, Professional). Based on plasma concentration data of inhibitors, the following model-independent pharmacokinetic variables were determined:
AUC(0-inf), AUC(0-t), Cmax, tmax, terminal half-life (t1/2) and bioavailability (F).
F (in %) was calculated from the ratio of observed AUC upon oral route of administration to the AUC upon intraarterial administration.

DP IV = DP IV (Homo sapiens, UniProt P27487); test: Ki and inhibition type, DP IV; assay type: biochemical; details: compounds obtained by preparative synthesis
Summary of the method: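 Ki by non-linear regression of 7 inhibitor dilutions (range from IC50) against 4 substrate dilutions, in triplicate, using purified human recombinant enzyme under IC50 assay conditions. Inhibition type assigned from the best-fitting equation (competitive, partial competitive, non-competitive); […].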

DP9 = DP9 (Homo sapiens, UniProt Q86TI2); test: DP9 assay; assay type: biochemical; details: for Selectivity DP9(IC50)/DPIV(Ki): ratio IC50 DP9 / Ki DP IV
Method: Determination of IC50 values for DPII and DP9 are done similarly as described for DP IV.
For DP9 Gly Pro-AMC is used as substrate in a final concentration of 0.25 mM.

[3] = Wistar (Crl:WI), rat, plasma, po, 3 mg/kg p.o., read-out: Mean AUC p.o.
[4] = Wistar (Crl:WI), rat, plasma, 3 mg/kg i.a., read-out: Mean AUC i.a.
[5] = Wistar (Crl:WI), rat, plasma, intraarterial 3 mg/kg, N = 4-6
[6] = Wistar (Crl:WI), rat, plasma, oral 3 mg/kg, N = 5
[7] = male, Wistar (Crl:WI), rat, plasma, 3 mg/kg, intraarterial 3 mg/kg, N = 4-6, read-out: Half-life (converted)
[8] = male, Wistar (Crl:WI), rat, plasma, po, 3 mg/kg, oral 3 mg/kg, N = 5, read-out: Half-life (converted)
[9] = male, Wistar (Crl:WI), rat, plasma, po, 3 mg/kg

Chain of DP IV (P27487 whole entry): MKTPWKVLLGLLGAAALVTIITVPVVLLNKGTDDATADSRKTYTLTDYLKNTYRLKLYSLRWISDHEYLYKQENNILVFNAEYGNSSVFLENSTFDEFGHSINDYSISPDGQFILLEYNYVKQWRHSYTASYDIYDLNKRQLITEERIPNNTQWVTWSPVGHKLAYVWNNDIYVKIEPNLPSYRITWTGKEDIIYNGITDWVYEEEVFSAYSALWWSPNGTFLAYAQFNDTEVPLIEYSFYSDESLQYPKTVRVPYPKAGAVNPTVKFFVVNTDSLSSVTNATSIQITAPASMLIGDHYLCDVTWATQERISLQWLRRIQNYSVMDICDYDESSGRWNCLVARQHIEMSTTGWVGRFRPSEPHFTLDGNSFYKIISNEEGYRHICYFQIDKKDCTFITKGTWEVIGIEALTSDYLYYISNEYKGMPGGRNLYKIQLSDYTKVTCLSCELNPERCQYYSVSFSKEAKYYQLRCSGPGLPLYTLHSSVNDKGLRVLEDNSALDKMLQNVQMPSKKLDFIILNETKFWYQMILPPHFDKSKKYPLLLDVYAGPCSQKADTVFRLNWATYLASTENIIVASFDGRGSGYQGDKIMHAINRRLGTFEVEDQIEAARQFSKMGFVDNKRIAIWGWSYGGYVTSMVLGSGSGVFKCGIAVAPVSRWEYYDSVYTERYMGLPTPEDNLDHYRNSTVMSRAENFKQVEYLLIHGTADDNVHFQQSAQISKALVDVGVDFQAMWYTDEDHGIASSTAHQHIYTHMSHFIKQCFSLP
Chain of DP9 (Q86TI2 whole entry, species assumed): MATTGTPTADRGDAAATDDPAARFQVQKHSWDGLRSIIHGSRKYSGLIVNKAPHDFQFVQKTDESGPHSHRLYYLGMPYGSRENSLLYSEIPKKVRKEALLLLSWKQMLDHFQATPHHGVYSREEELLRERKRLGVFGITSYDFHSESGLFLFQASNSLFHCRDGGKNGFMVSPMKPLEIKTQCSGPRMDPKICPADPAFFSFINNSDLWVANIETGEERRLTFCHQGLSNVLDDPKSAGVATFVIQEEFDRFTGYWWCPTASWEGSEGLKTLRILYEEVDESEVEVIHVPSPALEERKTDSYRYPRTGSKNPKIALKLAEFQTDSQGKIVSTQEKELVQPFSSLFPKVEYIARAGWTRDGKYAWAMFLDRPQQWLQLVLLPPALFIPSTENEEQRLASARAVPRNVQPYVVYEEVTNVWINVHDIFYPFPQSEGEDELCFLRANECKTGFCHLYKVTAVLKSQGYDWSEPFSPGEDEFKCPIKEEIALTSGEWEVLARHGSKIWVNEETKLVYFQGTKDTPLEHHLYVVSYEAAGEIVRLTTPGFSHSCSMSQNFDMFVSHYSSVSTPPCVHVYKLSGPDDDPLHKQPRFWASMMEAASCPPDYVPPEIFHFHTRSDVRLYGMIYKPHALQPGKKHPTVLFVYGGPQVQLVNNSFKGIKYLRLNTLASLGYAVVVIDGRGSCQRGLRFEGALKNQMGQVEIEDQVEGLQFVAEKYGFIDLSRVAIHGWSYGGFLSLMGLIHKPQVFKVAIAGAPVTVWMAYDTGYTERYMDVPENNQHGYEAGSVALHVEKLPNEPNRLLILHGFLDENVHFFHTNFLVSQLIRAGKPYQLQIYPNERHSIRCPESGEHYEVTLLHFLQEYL

NCc1c(-c2ccc(Cl)cc2Cl)ncn1Cc1ccccc1 [Example 24b, (1-benzyl-4-(2,4-dichlorophenyl)-1H-imidazol-5-yl)methanamine]
LogBB ([1]; Animal No. 1): −0.36 | LogBB ([1]; Animal No. 2): −0.33 | LogBB ([1]; Animal No. 3): −0.26 | LogBB ([1]; Animal No. 4): −0.34 | LogBB ([1]; Animal No. 5): −0.29 | Kp at 60 min [1]: 0.483 | Kp at 1 h [1]: 0.483 | LogBB Mean [1]: −0.3160 | AUC [2, 3]: 390 ng·h/mL | AUC [2, 4]: 510 ng·h/mL | AUC(0-inf) [2, 5]: 640 ± 205 ng·h/mL | AUC(0-t) [2, 5]: 510 ± 151 ng·h/mL | Cmax [2, 5]: 440 ± 73 ng/mL | AUC(0-inf) [2, 6]: 650 ± 314 ng·h/mL | AUC(0-t) [2, 6]: 390 ± 149 ng·h/mL | Cmax [2, 6]: 130 ± 36 ng/mL | Tmax [2, 6]: 0.75 ± 0.177 h | AUC/Dose ([2]; intraarterial 3 mg/kg, N = 4-6): 0.18 ± 0.093 kg·µg·h/mL/mg | AUC/Dose ([2]; oral 3 mg/kg, N = 5): 0.22 ± 0.105 kg·µg·h/mL/mg | half-life [2, 7]: 2.94 ± 1.39 h | half-life [2, 8]: 4.83 ± 4.08 h | bioavailability [2, 9]: 76% | Ki (DP IV): 4.74 nM | Selectivity DP9(IC50)/DPIV(Ki) (DP9): 25,527

NCc1c(-c2ccc(Cl)cc2Cl)ncn1Cc1ccccn1 [Example 39b]
LogBB ([1]; Animal No. 1): −0.56 | LogBB ([1]; Animal No. 2): −0.43 | LogBB ([1]; Animal No. 3): −0.53 | LogBB ([1]; Animal No. 4): −0.38 | LogBB ([1]; Animal No. 5): −0.39 | Kp at 60 min [1]: 0.275 | Kp at 1 h [1]: 0.275 | LogBB Mean [1]: −0.4580 | AUC [2, 3]: 140 ng·h/mL | AUC [2, 4]: 330 ng·h/mL | AUC(0-inf) [2, 5]: 410 ± 191 ng·h/mL | AUC(0-t) [2, 5]: 330 ± 148 ng·h/mL | Cmax [2, 5]: 280 ± 51 ng/mL | AUC(0-inf) [2, 6]: 290 ± 141 ng·h/mL | AUC(0-t) [2, 6]: 140 ± 75 ng·h/mL | Cmax [2, 6]: 80 ng/mL | Tmax [2, 6]: 0.4 ± 0.224 h | half-life ([2]; intraarterial 3 mg/kg, N = 4-6): 1.57 ± 1.138 h | AUC/Dose ([2]; oral 3 mg/kg, N = 5): 0.10 ± 0.047 kg·µg·h/mL/mg | half-life [2, 7]: 1.6 h | half-life [2, 8]: 3.18 ± 2.13 h | bioavailability [2, 9]: 43% | Ki (DP IV): 5.68 nM | Selectivity DP9(IC50)/DPIV(Ki) (DP9): 20,951

NCc1c(-c2ccc(Cl)cc2Cl)ncn1Cc1cccnc1 [Example 121b, (4-(2,4-dichlorophenyl)-1-((pyridin-3-yl)methyl)-1H-imidazol-5-yl)methanamine]
LogBB ([1]; Animal No. 1): −0.57 | LogBB ([1]; Animal No. 2): −0.50 | LogBB ([1]; Animal No. 3): −0.70 | LogBB ([1]; Animal No. 4): −0.91 | Kp at 60 min [1]: 0.214 | Kp at 1 h [1]: 0.214 | LogBB Mean [1]: −0.6700 | AUC [2, 3]: 230 ng·h/mL | AUC [2, 4]: 440 ng·h/mL | AUC(0-inf) [2, 5]: 630 ± 350 ng·h/mL | AUC(0-t) [2, 5]: 440 ± 215 ng·h/mL | Cmax [2, 5]: 400 ± 120 ng/mL | AUC(0-inf) [2, 6]: 350 ± 207 ng·h/mL | AUC(0-t) [2, 6]: 230 ± 206 ng·h/mL | Cmax [2, 6]: 110 ± 51 ng/mL | Tmax [2, 6]: 0.45 ± 0.274 h | AUC/Dose ([2]; intraarterial 3 mg/kg, N = 4-6): 0.21 ± 0.115 kg·µg·h/mL/mg | AUC/Dose ([2]; oral 3 mg/kg, N = 5): 0.12 ± 0.069 kg·µg·h/mL/mg | half-life [2, 7]: 1.98 ± 0.994 h | half-life [2, 8]: 3.26 ± 3.87 h | bioavailability [2, 9]: 53% | Ki (DP IV): 2.96 nM | Selectivity DP9(IC50)/DPIV(Ki) (DP9): 34,797

NCc1c(-c2ccc(Cl)cc2Cl)ncn1Cc1ccsc1 [Example 130b, (4-(2,4-dichlorophenyl)-1-((thiophen-3-yl)methyl)-1H-imidazol-5-yl)methanamine]
LogBB ([1]; Animal No. 1): −0.65 | LogBB ([1]; Animal No. 2): −0.63 | LogBB ([1]; Animal No. 3): −1.03 | LogBB ([1]; Animal No. 4): −0.12 | LogBB ([1]; Animal No. 5): −0.76 | Kp at 60 min [1]: 0.23 | Kp at 1 h [1]: 0.23 | LogBB Mean [1]: −0.6380 | AUC [2, 3]: 1270 ng·h/mL | AUC [2, 4]: 1680 ng·h/mL | AUC(0-inf) [2, 5]: 2470 ± 1440 ng·h/mL | AUC(0-t) [2, 5]: 1680 ± 516 ng·h/mL | Cmax [2, 5]: 1160 ± 470 ng/mL | AUC(0-inf) [2, 6]: 2330 ± 1180 ng·h/mL | AUC(0-t) [2, 6]: 1270 ± 618 ng·h/mL | Cmax [2, 6]: 300 ng/mL | Tmax [2, 6]: 0.55 ± 0.326 h | half-life ([2]; intraarterial 3 mg/kg, N = 4-6): 4.00 ± 2.308 h | AUC/Dose ([2]; oral 3 mg/kg, N = 5): 0.78 ± 0.394 kg·µg·h/mL/mg | half-life [2, 7]: 5.5 h | half-life [2, 8]: 5.49 ± 1.52 h | bioavailability [2, 9]: 76% | Ki (DP IV): 7.69 nM | Ki (DP9): 21500 nM | IC50 (DP9; Gly Pro-AMC 0.25 mM): 97300 nM | Selectivity DP9(IC50)/DPIV(Ki) (DP9): 12,653
